From patent US20250290117A1, “MOLECULAR PHENOTYPIC ANTIMICROBIAL SUSCEPTIBILITY TESTING” (priority 2024, published 2025)

Experiments:
M. morganii = test: Molecular phenotypic antimicrobial susceptibility test, specimen with two detected pathogens incubated together without isolation; type: cell-based, Morganella morganii; conditions: M. morganii in specimen with two detected pathogens (E. coli and M. morganii) incubated together; for Ct of Sensitive Breakpoint: Ct of controls (average) 19.99; for Molecular Antimicrobial Susceptibility Result: at sensitive breakpoint
Procedure: Detection of Molecular Phenotypic Antimicrobial Susceptibility. Disclosed herein are the methods for the detection of phenotypic antimicrobial susceptibility via molecular methods. The present invention describes how a specimen 100 with a known microbial load is incubated and then exposed to a panel of antimicrobial agents to determine sensitivity (prevention of growth) or resistance (allowance of growth) to the specific antimicrobial agents tested utilizing molecular methods.
Sample Collection. Specimens 100 are collected from patients using sterile collection processes that are employed in routine clinical care. Specimens are transported to the testing facility in boric acid preservative. Specimens 100 are subsequently divided into a first sample 104 and a second sample 108.
Preparation of the Specimens for Testing. The specimens 100 are put through a pathogen identification process using PCR technology (e.g., using the first sample 104). The process for pathogen isolation includes steps of harvesting the pathogen (e.g., via centrifugation), isolating pathogen DNA via a DNA isolation and/or purification kit, and performing PCR on the pathogen DNA via PCR components (e.g., primers, enzymes, buffers) as would be known to the skilled artisan. Simultaneously, an additional aliquot of the same specimen (e.g., the second sample 108) is placed with liquid culture media and incubated for 4-6 hours. This aliquot is used for antimicrobial susceptibility testing if indicated based on the pathogen detection results. After pathogen identification is completed and if more than 10,000 cells/mL of bacteria (e.g., eligible bacteria) are detected in the source specimen, the second sample 108 then enters the antimicrobial susceptibility phase of testing. Specimens 100 with lower pathogen loads could also be utilized in the antibiotic susceptibility phase of testing with or without a longer incubation period.
Preparation of Antimicrobial Susceptibility Testing Plates. Antimicrobial solutions are prepared at known concentrations. The specific antimicrobials and their concentrations are selected based on the pathogen of interest and the described antimicrobial resistance breakpoints for that specimen pathogen and antimicrobial combination. These antimicrobials have been selected based on those commonly utilized by healthcare providers in routine clinical care for the specific type of suspected infection. The number and types of antimicrobials utilized can be customized based on the infection source, pathogen detected, patient-specific factors such as allergies or other health conditions (e.g., chronic kidney disease or concurrent medication use), or healthcare provider preferences such as antimicrobial availability or cost.
The antimicrobial solutions are prepared in liquid culture media (such as Muller Hinton Broth) to achieve the desired antimicrobial concentration and are then stored at −80° C. until use. For a given specimen, each antimicrobial is tested at a single or multiple antimicrobial concentration(s) which is its established breakpoints for sensitivity. The antimicrobial solutions are prepared and plated out for each specific pathogen. This allows ease of use on the day of testing after defrosting the plate 112. Table 1, which illustrates the results of molecular phenotypic antimicrobial susceptibility testing when more than one organism is present in the source specimen, provides an example of an antimicrobial plate 112 prepared for this purpose. Of note, control wells containing only culture media are present on all plates 112. This allows for evaluation of pathogen load when no antimicrobial is present.
Specimen Exposure to Antimicrobial Agents. The 1 mL aliquot of the specimen 100 previously mixed with culture media and incubated is obtained. Using optical density measurements as a guide, the specimen 100 is diluted to 0.5 McFarland. […]

pathogen of the specimen = test: Molecular phenotypic antimicrobial susceptibility test with direct PCR at various incubation timepoints (Table 7); type: cell-based
Procedure: Detection of Molecular Phenotypic Antimicrobial Susceptibility. Disclosed herein are the methods for the detection of phenotypic antimicrobial susceptibility via molecular methods. The present invention describes how a specimen 100 with a known microbial load is incubated and then exposed to a panel of antimicrobial agents to determine sensitivity (prevention of growth) or resistance (allowance of growth) to the specific antimicrobial agents tested utilizing molecular methods. Sample Collection. Specimens 100 are collected from patients using sterile collection processes that are employed in routine clinical care. Specimens are transported to the testing facility in boric acid preservative. […] The process for pathogen isolation includes steps of harvesting the pathogen (e.g., via centrifugation), isolating pathogen DNA via a DNA isolation and/or purification kit, and performing PCR on the pathogen DNA via PCR components (e.g., primers, enzymes, buffers) as would be known to the skilled artisan. […] This aliquot is used for antimicrobial susceptibility testing if indicated based on the pathogen detection results. […] Specimens 100 with lower pathogen loads could also be utilized in the antibiotic susceptibility phase of testing with or without a longer incubation period. […] Antimicrobial solutions are prepared at known concentrations. The specific antimicrobials and their concentrations are selected based on the pathogen of interest and the described antimicrobial resistance breakpoints for that specimen pathogen and antimicrobial combination. These antimicrobials have been selected based on those commonly utilized by healthcare providers in routine clinical care for the specific type of suspected infection. The number and types of antimicrobials utilized can be customized based on the infection source, pathogen detected, patient-specific factors such as allergies or other health conditions (e.g., chronic kidney disease or concurrent medication use), or healthcare provider preferences such as antimicrobial availability or cost. The antimicrobial solutions are prepared in liquid culture media (such as Muller Hinton Broth) to achieve the desired antimicrobial concentration and are then stored at −80° C. until use. For a given specimen, each antimicrobial is tested at a single or multiple antimicrobial concentration(s) which is its established breakpoints for sensitivity. The antimicrobial solutions are prepared and plated out for each specific pathogen. […] This allows for evaluation of pathogen load when no antimicrobial is present. Specimen Exposure to Antimicrobial Agents. The 1 mL aliquot of the specimen 100 previously mixed with culture media and incubated is obtained. Using optical density measurements as a guide, the specimen 100 is diluted to 0.5 McFarland. […] Antimicrobial exposure plates are typically placed into an incubator for 12-16 hours. […] Nucleic Acid Amplification of Antimicrobial Agent Exposed Pathogens. The antimicrobial exposure plate is removed after the period of incubation. The specimen then undergoes a purification or lysis step. For example, the specimen may undergo a purification step (e.g., magnetic bead-based or other separation protocol to isolate genetic material). In another example, the specimen may undergo a cell lysis step. For example, buffer (e.g., lysis buffer) may be added and incubated in the thermal cycler for preparation for direct PCR. Next, the specimen may undergo a polymerase chain reaction (PCR) testing protocol, whereby a semi-quantitative PCR method is utilized. This may be completed either with or without a specific extraction protocol step. The pathogens can be individually targeted and detected, or a universal genetic sequence can be utilized to detect the antimicrobial susceptibility of the specimen as a whole. The control wells are utilized as a threshold for determining antimicrobial sensitivity or resistance. […] Antimicrobial Susceptibility Result Interpretation.

[1] = E. coli isolate 1189, antibiotic incubation time 4 hours
[2] = E. coli isolate 1189, antibiotic incubation time 4 hours, control average Ct […]
[3] = E. coli isolate 1189, antibiotic incubation time 6 hours
[4] = E. coli isolate 1189, antibiotic incubation time 6 hours, control average Ct 16.992
[5] = E. coli isolate 1189, antibiotic incubation time 8 hours
[6] = E. coli isolate 1189, antibiotic incubation time 8 hours, control average Ct […]
[7] = E. coli isolate 1189, antibiotic incubation time 10 hours
[8] = E. coli isolate 1189, antibiotic incubation time 10 hours, control average Ct 15.995
[9] = E. coli isolate 1189, antibiotic incubation time 12 hours
[10] = E. coli isolate 1189, antibiotic incubation time 12 hours, control average Ct 15.495
[11] = E. coli isolate 1189, antibiotic incubation time 14 hours
[12] = E. coli isolate 1189, antibiotic incubation time 14 hours, control average Ct 15.826
[13] = E. coli isolate 1189, antibiotic incubation time 16 hours
[14] = E. coli isolate 1189, antibiotic incubation time 16 hours, control average Ct 14.880

For `CO[C@@]1(NC(=O)Cc2cccs2)C(=O)N2C(C(=O)O)=C(COC(N)=O)CS[C@@H]21` [Cefoxitin], the “Ct of Sensitive Breakpoint” value (M. morganii) was 23.01, the “Molecular Antimicrobial Susceptibility Result” value (M. morganii) was “Sensitive (Antimicrobial wells with pathogen load detected below the control wells (typically >2 cycle thresholds later) may be reported as Sensitive)” and the “Molecular Antimicrobial Susceptibility Result” value (pathogen of the specimen; [1]) was “Resistant”. For the same compound, the “Ct at Sensitive Breakpoint” value (pathogen of the specimen; [2]) was 17.798, the “Molecular Antimicrobial Susceptibility Result” value (pathogen of the specimen; [3]) was “Resistant” and the “Ct at Sensitive Breakpoint” value (pathogen of the specimen; [4]) was 15.865. For the same compound, the “Molecular Antimicrobial Susceptibility Result” value (pathogen of the specimen; [5]) was “Resistant”, the “Ct at Sensitive Breakpoint” value (pathogen of the specimen; [6]) was 16.837 and the “Molecular Antimicrobial Susceptibility Result” value (pathogen of the specimen; [7]) was “Resistant”. The “Ct at Sensitive Breakpoint” value (pathogen of the specimen; [8]) was 14.899, the “Molecular Antimicrobial Susceptibility Result” value (pathogen of the specimen; [9]) was “Resistant” and the “Ct at Sensitive Breakpoint” value (pathogen of the specimen; [10]) was 15.750. The “Molecular Antimicrobial Susceptibility Result” value (pathogen of the specimen; [11]) was “Resistant”, the “Ct at Sensitive Breakpoint” value (pathogen of the specimen; [12]) was 15.333 and the “Molecular Antimicrobial Susceptibility Result” value (pathogen of the specimen; [13]) was “Resistant”. For the same compound, the “Ct at Sensitive Breakpoint” value (pathogen of the specimen; [14]) was 13.704.

`O=C1CN(/N=C/c2ccc([N+](=O)[O-])o2)C(=O)N1` [Nitrofurantoin] was tested, and the “Ct of Sensitive Breakpoint” value (M. morganii) was 33.37, the “Molecular Antimicrobial Susceptibility Result” value (M. morganii) was “Sensitive (Antimicrobial wells with pathogen load detected below the control wells (typically >2 cycle thresholds later) may be reported as Sensitive)” and the “Molecular Antimicrobial Susceptibility Result” value (pathogen of the specimen; [1]) was “Sensitive (Antimicrobial wells with pathogen load detected below the control wells (typically >2 cycle thresholds later) may be reported as Sensitive)”. For the same compound, the “Ct at Sensitive Breakpoint” value (pathogen of the specimen; [2]) was 27.265, the “Molecular Antimicrobial Susceptibility Result” value (pathogen of the specimen; [3]) was “Sensitive (Antimicrobial wells with pathogen load detected below the control wells (typically >2 cycle thresholds later) may be reported as Sensitive)” and the “Ct at Sensitive Breakpoint” value (pathogen of the specimen; [4]) was 27.430. The “Molecular Antimicrobial Susceptibility Result” value (pathogen of the specimen; [5]) was “Sensitive (Antimicrobial wells with pathogen load detected below the control wells (typically >2 cycle thresholds later) may be reported as Sensitive)”, the “Ct at Sensitive Breakpoint” value (pathogen of the specimen; [6]) was 28.823 and the “Molecular Antimicrobial Susceptibility Result” value (pathogen of the specimen; [7]) was “Sensitive (Antimicrobial wells with pathogen load detected below the control wells (typically >2 cycle thresholds later) may be reported as Sensitive)”. For the same compound, the “Ct at Sensitive Breakpoint” value (pathogen of the specimen; [8]) was 27.170, the “Molecular Antimicrobial Susceptibility Result” value (pathogen of the specimen; [9]) was “Sensitive (Antimicrobial wells with pathogen load detected below the control wells (typically >2 cycle thresholds later) may be reported as Sensitive)” and the “Ct at Sensitive Breakpoint” value (pathogen of the specimen; [10]) was 26.777. The “Molecular Antimicrobial Susceptibility Result” value (pathogen of the specimen; [11]) was “Sensitive (Antimicrobial wells with pathogen load detected below the control wells (typically >2 cycle thresholds later) may be reported as Sensitive)”, the “Ct at Sensitive Breakpoint” value (pathogen of the specimen; [12]) was 26.788 and the “Molecular Antimicrobial Susceptibility Result” value (pathogen of the specimen; [13]) was “Sensitive (Antimicrobial wells with pathogen load detected below the control wells (typically >2 cycle thresholds later) may be reported as Sensitive)”. The “Ct at Sensitive Breakpoint” value (pathogen of the specimen; [14]) was 24.548.

`C[C@@H](O)[C@H]1C(=O)N2C(C(=O)O)=C(S[C@@H]3CN[C@H](C(=O)N(C)C)C3)[C@H](C)[C@H]12` [Meropenem] was tested, and the “Ct of Sensitive Breakpoint” value (M. morganii) was 29.99, the “Molecular Antimicrobial Susceptibility Result” value (M. morganii) was “Sensitive (Antimicrobial wells with pathogen load detected below the control wells (typically >2 cycle thresholds later) may be reported as Sensitive)” and the “Molecular Antimicrobial Susceptibility Result” value (pathogen of the specimen; [1]) was “Sensitive (Antimicrobial wells with pathogen load detected below the control wells (typically >2 cycle thresholds later) may be reported as Sensitive)”. For the same compound, the “Ct at Sensitive Breakpoint” value (pathogen of the specimen; [2]) was 22.751, the “Molecular Antimicrobial Susceptibility Result” value (pathogen of the specimen; [3]) was “Sensitive (Antimicrobial wells with pathogen load detected below the control wells (typically >2 cycle thresholds later) may be reported as Sensitive)” and the “Ct at Sensitive Breakpoint” value (pathogen of the specimen; [4]) was 22.884. For the same compound, the “Molecular Antimicrobial Susceptibility Result” value (pathogen of the specimen; [5]) was “Sensitive (Antimicrobial wells with pathogen load detected below the control wells (typically >2 cycle thresholds later) may be reported as Sensitive)”, the “Ct at Sensitive Breakpoint” value (pathogen of the specimen; [6]) was 23.187 and the “Molecular Antimicrobial Susceptibility Result” value (pathogen of the specimen; [7]) was “Sensitive (Antimicrobial wells with pathogen load detected below the control wells (typically >2 cycle thresholds later) may be reported as Sensitive)”. The “Ct at Sensitive Breakpoint” value (pathogen of the specimen; [8]) was 23.901, the “Molecular Antimicrobial Susceptibility Result” value (pathogen of the specimen; [9]) was “Sensitive (Antimicrobial wells with pathogen load detected below the control wells (typically >2 cycle thresholds later) may be reported as Sensitive)” and the “Ct at Sensitive Breakpoint” value (pathogen of the specimen; [10]) was 26.014. The “Molecular Antimicrobial Susceptibility Result” value (pathogen of the specimen; [11]) was “Sensitive (Antimicrobial wells with pathogen load detected below the control wells (typically >2 cycle thresholds later) may be reported as Sensitive)”, the “Ct at Sensitive Breakpoint” value (pathogen of the specimen; [12]) was 26.211 and the “Molecular Antimicrobial Susceptibility Result” value (pathogen of the specimen; [13]) was “Sensitive (Antimicrobial wells with pathogen load detected below the control wells (typically >2 cycle thresholds later) may be reported as Sensitive)”. For the same compound, the “Ct at Sensitive Breakpoint” value (pathogen of the specimen; [14]) was 27.457.
